The subject of data set [1] is PpIX in MKN45 cells. Description: Photobleaching inhibitory effect for PpIX produced from ALA in cells with other reductants (Example 2). The data set is classed as cell-based. To be noted: 1 mM ALA 24 h, ascorbic acid 500 μM, tocopherol 500 μM, lutein 10 μM in PBS, excitation 400 nm, fluorescence 635 nm, 0-180 s. How it is done:
Photobleaching suppression effect for PpIX was measured for other reductants. The following were employed as the reductants. Each reductant solution was prepared by the following method and each of the prepared solutions was used as sample solvents for photobleaching measuring.
Solution supplemented with 5 μL of ascorbic acid (solvent: milli Q, concentration of supplemented solution: 100 mM) was added to 1 mL of PBS to prepare an ascorbic acid solution having a final concentration of 500 μM.
Solution supplemented with 5 μL of tocopherol (solvent: DMSO, concentration of supplemented solution: 100 mM) was added to 1 mL of PBS to prepare a tocopherol solution having a final concentration of 500 μM.
Solution supplemented with 5 μL of lutein (solvent: DMSO, concentration of supplemented solution: 2 mM) was added to 1 mL of PBS to prepare a lutein solution having a final concentration of 10 μM.
MKN45 cells were seeded in a 35 mm dish at 0.5×10^6 cells, and the culture medium on the 35 mm dish was 2 mL. Ten μL of 0.2 M ALA hydrochloride (5-aminolevulinic acid hydrochloride) solution was added to the 2 mL of culture medium in the 35 min dish to achieve the final concentration of ALA in the culture medium at 1 mM. This 35 mm dish was cultured in a 5% CO2 incubator at 37° C. for 24 hours. The cells were then washed with 1 ml of PBS, and then 1 mL of each of the reductant solutions prepared as above were added, the cells were immediately scraped off with a cell scraper, and the cells were suspended by pipetting. The fluorescence intensity at 635 nm of each of these cell suspensions under the excitation light at 400 nm was measured. The fluorescence intensity was measured from 0 seconds post irradiation of excitation light for every 10 seconds until 180 seconds post irradiation. The measurement of fluorescence intensity was performed with irradiation of the excitation light even after the 0 seconds post irradiation of excitation light.

The nature of data set [2]: Dissolution of alkyl gallates at 50 mM in Gly+PBS or DMSO. The data set is classed as physicochemical. To be noted: for solubility in Gly+PBS solution: 0.3 mmol in 6 mL (50 mM) 50% glycerol PBS. The method, then:
(§1) (1) In order to prepare 50 mM solutions of each alkyl gallate, 0.3 mmol of each alkyl gallate was placed in a 15 mL tube, and 6 mL of 50% glycerol PBS solution (a mixture of glycerol and PBS at a proportion of 1:1, hereinafter may be notated as “Gly+PBS” or “Gly+PBS solution”) or DMSO was added and dissolved.

Data set [3] in a line: Photobleaching inhibitory effect for porphyrins by each alkyl gallate in solution (Example 4). The data set is classed as physicochemical. To be noted: 50 mM alkyl gallate, 1 μM PpIX; for t/2 of PpIX fluorescence intensity: excitation 402 nm, 0.4 mA, pseudo-first-order. The method, then: The photobleaching inhibitory effect for porphyrins by gallic acids was measured with the following procedure. Methyl gallate (MeG, from Wako, Cat. No. 134-09812), butyl gallate (BuG, from Wako, Cat. No. 322-67472), n-propyl gallate (PrG, from Wako, Cat. No. 162-06832), and octyl gallate (OcG, from Wako, Cat. No. 322-56482) were employed as gallic acids. The gallic acids employed here are all compounds having a linear alkyl.
as §1
(3) After dispensing 990 μL of alkyl gallate into a 2 mL vial, 10 μL of 100 μM PpIX was added (final concentration of PpIX at 1 μM).
(4) Measurement of the fluorescence spectrum was performed for each alkyl gallate+PpIX solution prepared in (3) with a simplified fluorescence measurement device. LED was employed as the light source, the wavelength of the excitation light employed was 402 nm, the output current was set at 0.4 mA, and the measurement interval was every 10 seconds until 180 seconds for measurement.
For each of the plots above in FIG. 14 and FIG. 15 when a Gly+PBS solution and a DMSO solution was employed as the solvent for gallic acid, the relative fluorescence intensity was calculated by setting the fluorescence intensity immediately post irradiation (0 seconds later) as 1, and the transition of fluorescence intensity of PpIX was plotted with the calculated relative intensity as the vertical axis as shown in FIG. 16 and FIG. 17, respectively. This transition of relative fluorescence intensity was treated as a pseudo-first-order reaction to determine the half-life, and shown in Table 2 and Table 3, respectively.

The subject of data set [4] is PpIX in MKN45 cells. Briefly: Photobleaching inhibitory effect for PpIX produced from ALA in cells with gallic acids or other reductants (Example 1). The class given is cell-based. To be noted: excitation 400 nm, fluorescence 635 nm; for photobleaching inhibitory effect for PpIX: 1 mM ALA 24 h, reductant in 50% glycerol PBS (NPG 2%, PPD 0.5%, DABCO 5%, Prolong Gold as sold), 0-180 s. How it is done:
(§2) MKN45 cells were seeded in a 35 mm dish at 0.5×10^6 cells, and the culture medium on the 35 mm dish was 2 mL. Ten μL of 0.2 M ALA hydrochloride (5-aminolevulinic acid hydrochloride) solution was added to the 2 mL of culture medium in the 35 mm dish to achieve the final concentration of ALA in the culture medium at 1 mM. This 35 mm dish was cultured in a 5% CO2 incubator at 37° C. for 24 hours. The cells were then washed with 1 ml of PBS, 1 mL of each of the following reductant solutions (dissolved in 50% glycerol PBS solution) were added on ice, the cells were immediately scraped off with a cell scraper, and the cells were suspended by pipetting. The fluorescence intensity at 635 nm of each of these cell suspensions under the excitation light at 400 nm was measured. The fluorescence intensity was measured from 0 seconds post irradiation of excitation light for every 10 seconds until 180 seconds post irradiation. Not limited to Example 1, the measurement of fluorescence intensity was performed with irradiation of the excitation light even after the 0 seconds post irradiation of excitation light.
The following were employed at the following final concentrations as each reductant:
Paraphenylenediamine (hereinafter abbreviated as “PPD”): 0.5%
n-propyl gallate (hereinafter abbreviated as “NPG”): 2%
1-4-diazabicyclo[2.2.2]-octane (hereinafter abbreviated as “DABCO”): 5%
Prolong Gold™: approximately 1% as the active ingredient sodium azide
Since Prolong Gold (an anti-fade agent from Invitrogen) was sold as a solution containing approximately 1% of sodium azide, it was added directly as the commercially available solution without employing 50% glycerol/PBS to carry out the investigation.

In data set [5] the test system is PpIX in MKN45 cells. Description: PpIX fluorescence half-life in ALA-loaded cells with 1% NPG at varied excitation light intensity (Example 3). The data set is classed as cell-based. The method, then: as §2
In a method similar to Example 1, 1 mL of 1% n-propyl gallic acid (NPG) solution was added, and the intensity of the excitation light was altered to 0.1 mA, 0.2 mA, 0.3 mA, and 0.4 mA to measure the fluorescence intensity.

Data set [6] is described as follows: Absorption spectrum 350 nm-750 nm of alkyl gallate solutions. To be noted: 50 mM alkyl gallate solution. The class given is physicochemical. The method, then:
(2) Measurement of the absorption spectrum at 350 nm-750 nm was performed with 1000 μL of each alkyl gallate solution prepared in (1).
Since the fluorescent substance protoporphyrin IX (PpIX) has a sharp absorbance at around 400 nm, and a light at around 400 nm is employed as the excitation light, it was deemed possible that excitation of PpIX could be inhibited when employing butyl gallate.

[7] abbreviates: Gly + PBS solution, fluorescence 627 nm.

Entries after “also recorded” stand apart in the source; their conditions may differ.

We go through nine molecules from patent US9517267B2, “Photodynamic diagnostic agent and photobleaching inhibitor” (SBI Pharmaceuticals Co., Ltd., priority 2012, dated 2016).

With `CC1=C[C@H](O)CC(C)(C)[C@H]1/C=C/C(C)=C/C=C/C(C)=C/C=C/C=C(C)/C=C/C=C(C)/C=C/C1=C(C)C[C@@H](O)CC1(C)C` [lutein], the “effect of inhibiting photobleaching of PpIX” value in the data set on PpIX in MKN45 cells [1] is “do not have the effect of inhibiting photobleaching”.

On to `CCCCCCCCOC(=O)c1cc(O)c(O)c(O)c1` [OcG, octyl gallate], for which the “solubility in Gly+PBS solution” value in data set [2] is “could not be dissolved”. For the same molecule, in data set [3] (DMSO solution), the “fluorescence intensity of PpIX after 30 seconds and 60 seconds relative to 0 seconds” value was “only modestly reduced”. Also, the “t/2 of PpIX fluorescence intensity” value in data set [3] (DMSO, fluorescence 632 nm) worked out at 239.0 s.

As for `CCCOC(=O)c1cc(O)c(O)c(O)c1` [NPG, n-propyl gallate], the “photobleaching inhibitory effect for PpIX” value with PpIX in MKN45 cells [4] is recorded as “superior photobleaching inhibitory effect was observed”. Moreover, the “fluorescence intensity after 180 seconds post irradiation, relative to control at 0 seconds” value in the data set with PpIX in MKN45 cells [4] (1 mM ALA, NPG 2%) was “about half”. Also, the “fluorescence intensity of PpIX after 30 seconds and 60 seconds relative to 0 seconds” value in data set [3] (DMSO solution) and in data set [3] (Gly+PBS solution) was “only modestly reduced” in each case. Besides, the “t/2 of PpIX fluorescence intensity” value in data set [3] (DMSO, fluorescence 632 nm) was determined as 231.0 s; in data set [3] (setting [7]), 239.0 s. Besides, the “duration of fluorescence in fluorescence microscope images” value with PpIX in MKN45 cells [5] (1% NPG vs vehicle, 0, 1, 2, 3 minutes post irradiation (FIG. 4)) was “fluorescence was maintained for a longer duration”. Moreover, the “prolongation of half-life versus vehicle” value with PpIX in MKN45 cells [5] (excitation light 0.4 mA, NPG 1%) was “three folds”.

As to `C1CN2CCN1CC2` [DABCO, 1-4-diazabicyclo[2.2.2]-octane], the “photobleaching inhibitory effect for PpIX” value in the data set with PpIX in MKN45 cells [4] is recorded as “insufficient; also recorded: no or almost no effect”.

As for `O=C1O[C@H]([C@@H](O)CO)C(O)=C1O` [ascorbic acid], in the data set on PpIX in MKN45 cells [1], the “effect of inhibiting photobleaching of PpIX” value was “do not have the effect of inhibiting photobleaching; also recorded: no or almost no effect”.

Consider `Nc1ccc(N)cc1` [PPD, Paraphenylenediamine], for which, in the data set with PpIX in MKN45 cells [4], the “photobleaching inhibitory effect for PpIX” value was “a state of high fluorescence intensity as with NPG could not be maintained; also recorded: no or almost no effect”. Moreover, the “fluorescence intensity at 0 seconds post irradiation of excitation light” value in the data set with PpIX in MKN45 cells [4] (1 mM ALA, PPD 0.5%) is on record as “markedly reduced”.

Regarding `COC(=O)c1cc(O)c(O)c(O)c1` [MeG, Methyl gallate], the “fluorescence intensity of PpIX after 30 seconds and 60 seconds relative to 0 seconds” value in data set [3] (DMSO solution) and in data set [3] (Gly+PBS solution) was “only modestly reduced” in each case. In addition, the “t/2 of PpIX fluorescence intensity” value worked out at 239.0 s in data set [3] (DMSO, fluorescence 632 nm) and 346.6 s in data set [3] (setting [7]).

Regarding `CCCCOC(=O)c1cc(O)c(O)c(O)c1` [BuG, butyl gallate], the “solubility in Gly+PBS solution” value in data set [2] is “able to dissolve”. Moreover, the “solubility in DMSO” value in data set [2] (0.3 mmol in 6 mL (50 mM) DMSO) is on record as “able to dissolve”. In data set [6], the “absorbance at around 400 nm” value is on record as “found to have absorbance at around 400 nm”. Also, the “fluorescence intensity of PpIX after 30 seconds and 60 seconds relative to 0 seconds” value in data set [3] (DMSO solution) and in data set [3] (Gly+PBS solution) was “only modestly reduced” each time. Moreover, the “t/2 of PpIX fluorescence intensity” value in data set [3] (DMSO, fluorescence 632 nm) amounted to 533.2 s; in data set [3] (setting [7]), 385.1 s.

Regarding tocopherol, in the data set on PpIX in MKN45 cells [1], the “effect of inhibiting photobleaching of PpIX” value is given as “do not have the effect of inhibiting photobleaching; also recorded: no or almost no effect”.
